The record followed here is patent US20100029617A1, “1,4,5,6,7,8-HEXAHYDRO-1,2,5-TRIAZA-AZULENE DERIVATIVES AS OREXIN RECEPTOR ANTAGONISTS” (Actelion Pharmaceuticals Ltd., priority 2006, published 2010).

Like-named read-outs stand apart in the source and are kept apart here.

Usually IC50 stands for the concentration at which inhibition is half-maximal.

The target in one assay is T1, human orexin-1 receptor (Homo sapiens, UniProt O43613).
T1 construct: expressed in transfected cells; host or cells: CHO cells (G418 selection)
T1 sequence (O43613 1-425): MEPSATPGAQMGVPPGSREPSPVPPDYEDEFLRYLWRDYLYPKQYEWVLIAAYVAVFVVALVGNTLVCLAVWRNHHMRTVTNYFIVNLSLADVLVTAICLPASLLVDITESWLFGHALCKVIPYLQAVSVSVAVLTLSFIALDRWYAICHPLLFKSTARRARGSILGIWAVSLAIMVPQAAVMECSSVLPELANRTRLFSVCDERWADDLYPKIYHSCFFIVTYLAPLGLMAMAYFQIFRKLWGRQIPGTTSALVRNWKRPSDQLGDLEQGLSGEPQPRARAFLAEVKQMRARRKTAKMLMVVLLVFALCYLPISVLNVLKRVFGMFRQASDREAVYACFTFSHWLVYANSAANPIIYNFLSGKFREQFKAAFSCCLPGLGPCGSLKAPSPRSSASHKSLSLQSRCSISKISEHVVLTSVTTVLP
The experiment in a line: Intracellular calcium measurements (FLIPR), orexin receptor antagonistic activity. To be noted: CHO cells expressing human orexin-1 receptor; agonist 10 nM human orexin-A; fluo-3 calcium signal; read-out: IC50 OX1. It is filed as cell-based. The procedure:
(§1) The orexin receptor antagonistic activity of the compounds of formula (II) is determined in accordance with the following experimental method.
(§2) Intracellular Calcium Measurements:
(§3) Chinese hamster ovary (CHO) cells expressing the human orexin-1 receptor and the human orexin-2 receptor, respectively, are grown in culture medium (Ham F-12 with L-Glutamine) containing 300 μg/ml G418, 100 U/ml penicillin, 100 μg/ml streptomycin and 10% inactivated fetal calf serum (FCS). The cells are seeded at 80'000 cells/well into 96-well black clear bottom sterile plates (Costar) which have been precoated with 1% gelatine in Hanks' Balanced Salt Solution (HBSS). All reagents are from Gibco BRL. The seeded plates are incubated overnight at 37° C. in 5% CO2.
(§4) Human orexin-A as an agonist is prepared as 1 mM stock solution in methanol:water (1:1), diluted in HBSS containing 0.1% bovine serum albumin (BSA) and 2 mM HEPES for use in the assay at a final concentration of 10 nM.
(§5) Antagonists are prepared as 10 mM stock solution in DMSO, then diluted in 96-well plates, first in DMSO, then in HBSS containing 0.1% bovine serum albumin (BSA) and 2 mM HEPES.
(§6) On the day of the assay, 100 μl of loading medium (HBSS containing 1% FCS, 2 mM HEPES, 5 mM probenecid (Sigma) and 3 μM of the fluorescent calcium indicator fluo-3 AM (1 mM stock solution in DMSO with 10% pluronic acid) (Molecular Probes) is added to each well.
(§7) The 96-well plates are incubated for 60 min at 37° C. in 5% CO2. The loading solution is then aspirated and cells are washed 3 times with 200 μl HBSS containing 2.5 mM probenecid, 0.1% BSA, 2 mM HEPES. 100 μl of that same buffer is left in each well.
(§8) Within the Fluorescent Imaging Plate Reader (FLIPR, Molecular Devices), antagonists are added to the plate in a volume of 50 μl, incubated for 20 min and finally 100 μl of agonist is added. Fluorescence is measured for each well at 1 second intervals, and the height of each fluorescence peak is compared to the height of the fluorescence peak induced by 10 nM orexin-A with buffer in place of antagonist.

A further assay has as its target T2, human orexin-2 receptor (Homo sapiens, UniProt O43614).
T2 construct: expressed in transfected cells; host or cells: CHO cells (G418 selection)
T2 sequence (O43614 1-444): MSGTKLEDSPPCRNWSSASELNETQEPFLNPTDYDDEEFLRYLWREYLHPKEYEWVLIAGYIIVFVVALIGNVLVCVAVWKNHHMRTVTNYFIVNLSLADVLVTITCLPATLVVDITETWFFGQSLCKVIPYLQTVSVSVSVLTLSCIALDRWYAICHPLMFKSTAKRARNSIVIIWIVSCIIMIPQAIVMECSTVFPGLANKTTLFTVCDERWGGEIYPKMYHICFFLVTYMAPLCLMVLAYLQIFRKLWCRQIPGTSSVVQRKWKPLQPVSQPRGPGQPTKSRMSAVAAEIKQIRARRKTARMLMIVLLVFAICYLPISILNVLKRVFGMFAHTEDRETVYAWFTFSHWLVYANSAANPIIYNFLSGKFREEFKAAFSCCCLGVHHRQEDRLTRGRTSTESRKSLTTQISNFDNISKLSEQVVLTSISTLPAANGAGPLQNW
Described as above. It is filed as cell-based. To be noted: read-out: IC50 OX2. The procedure: as §1, §2, §3, §4, §5, §6, §7, §8

The mark [1] stands for this setting: CHO cells expressing human orexin-2 receptor, agonist 10 nM human orexin-A, fluo-3 calcium signal.

Consider `CCn1nc(C)c2c1CCCN([C@@H](C(=O)NC)c1ccccc1)[C@H]2CCc1cc(F)c(C(F)(F)F)c(F)c1` [Example 1 (4S;2′R), (R)-2′-{(S)-4-[2-(3,5-difluoro-4-trifluoromethyl-phenyl)-ethyl]-1-ethyl-3-methyl-4,6,7,8-tetrahydro-1H-1,2,5-triaza-azulen-5-yl}-N-methyl-2′-phenyl-acetamide], for which the IC50 on human orexin-1 receptor worked out at 22 nM; on human orexin-2 receptor (setting [1]), 12 nM.

Regarding `CCn1nc(C)c2c1CCCN([C@@H](C(=O)NC)c1ccccc1)[C@H]2CCc1ccc(C)c(C)c1` [Example 2 (4S;2′R), (R)-2′-{(S)-4-[2-(3,4-dimethyl-phenyl)-ethyl]-1-ethyl-3-methyl-4,6,7,8-tetrahydro-1H-1,2,5-triaza-azulen-5-yl}-N-methyl-2′-phenyl-acetamide], the IC50 on human orexin-1 receptor came out at 36 nM; on human orexin-2 receptor (setting [1]), 6 nM.

As for `CCn1nc(C)c2c1CCCN([C@@H](C(=O)NC)c1ccccc1)[C@H]2CCc1ccc(C(F)(F)F)cc1F` [Example 3 (4S;2′R), (R)-2′-{1-ethyl-(S)-4-[2-(2-fluoro-4-trifluoromethyl-phenyl)-ethyl]-3-methyl-4,6,7,8-tetrahydro-1H-1,2,5-triaza-azulen-5-yl}-N-methyl-2′-phenyl-acetamide], the IC50 was 138 nM at human orexin-1 receptor and 18 nM on human orexin-2 receptor (setting [1]).

`CCn1nc(C)c2c1CCCN([C@@H](C(=O)NC)c1ccccc1)[C@H]2CCc1cc(F)c(C)c(F)c1` [Example 4 (4S;2′R), (R)-2′-{(S)-4-[2-(3,5-difluoro-4-methyl-phenyl)-ethyl]-1-ethyl-3-methyl-4,6,7,8-tetrahydro-1H-1,2,5-triaza-azulen-5-yl}-N-methyl-2′-phenyl-acetamide]: the IC50 at human orexin-1 receptor was 26 nM; at human orexin-2 receptor, 6 nM.
